Assay [1] is described as follows: Inhibitory activity against Opioid receptor kappa1 binding to bovine striatal membrane.
The nature of assay [2]: Inhibitory activity against Opioid receptor delta 1 binding to bovine striatal membrane.

pIC50: −log10 of the molar value.

With `C[C@@]12Oc3c(O)ccc4c3[C@@]13CCN(CC1CC1)[C@H](C4)[C@]3(NC(=O)CSSCC(=O)N[C@@]13CCC(=O)[C@]4(C)Oc5c(O)ccc6c5[C@@]41CCN(CC1CC1)[C@@H]3C6)CCC2=O`, the pIC50 in assay [1] is 8.11; in assay [2] it was 8.28.

`CN1CC[C@]23c4c5ccc(O)c4O[C@@]2(C)C(=O)CC[C@@]3(NC(=O)CSSCC(=O)N[C@@]23CCC(=O)[C@]4(C)Oc6c(O)ccc7c6[C@@]42CCN(C)C3C7)C1C5` [MET-TAMO and N-CPM-MET-TAMO analogue]: the pIC50 was 7.05 in assay [1] and 7.28 in assay [2].

Usually pIC50 stands for the negative decadic logarithm of the IC50, by convention in mol/L. A low value points to a high IC50.

(Values after BindingDB's records for doi:10.1016/0960-894X(95)00287-4 (1995).)
